Data from PubChem BioAssay (NCI).
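A five-concentration, 48-hour dose response in 96-well plates underlies each endpoint, interpolated linearly between surrounding concentrations. TGI: total growth inhibition.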

How the values were obtained:
Assay in all cases: DTP human tumour cell line panel, 48 h
SF-295 CNS = system: SF-295 CNS
NCI-H226 lung = system: NCI-H226 lung
K-562 leukemia = system: K-562 leukemia
NCI-H522 lung = system: NCI-H522 lung
A549 NSCLC = system: A549 NSCLC
OVCAR-5 ovarian = system: OVCAR-5 ovarian
OVCAR-8 ovarian = system: OVCAR-8 ovarian
MCF7 breast = system: MCF7 breast
SNB-75 CNS = system: SNB-75 CNS
A498 renal = system: A498 renal
CCRF-CEM leukemia = system: CCRF-CEM leukemia
MALME-3M melanoma = system: MALME-3M melanoma
TK-10 renal = system: TK-10 renal

| SMILES | TGI (SF-295 CNS) [µM] | TGI (NCI-H226 lung) [µM] | TGI (K-562 leukemia) [µM] | TGI (NCI-H522 lung) [µM] | TGI (A549 NSCLC) [µM] | TGI (OVCAR-5 ovarian) [µM] | TGI (OVCAR-8 ovarian) [µM] | TGI (MCF7 breast) [µM] | TGI (SNB-75 CNS) [µM] | TGI (A498 renal) [µM] | TGI (CCRF-CEM leukemia) [µM] | TGI (MALME-3M melanoma) [µM] | TGI (TK-10 renal) [µM] |
| --- | --- | --- | --- | --- | --- | --- | --- | --- | --- | --- | --- | --- | --- |
| CC1(C)CCCCCCCCCC(C)(CCCO)C1=O (configuration not stated) | 32.7 | 31 | 73.7 | 29.7 | 28.8 | 28.8 | 35.8 | 31.1 | 31.9 | 33.1 | 92.4 | 30.6 | – |
| c1ccc2[nH]c3[nH]c4[nH]c5ccccc5[nH]c4[nH]c3[nH]c2c1 | > 100 | > 100 | > 100 | > 100 | > 100 | > 100 | > 100 | > 100 | 53.4 | > 100 | > 100 | > 100 | > 100 |
| COc1cc(/C=C2/SC(c3ccccc3)N(c3ccc(Cl)cc3)C2=O)cc(OC)c1OC (configuration not stated) | > 100 | > 100 | > 100 | > 100 | > 100 | > 100 | > 100 | > 100 | > 100 | > 100 | > 44.8 | > 100 | > 100 |
| CC(=O)n1nc(-c2nc3ccccc3nc2Cl)cc1Cl | > 93.2 | 30.8 | > 53.2 | 31.2 | > 88.5 | > 92.3 | 67.1 | > 82.6 | 76.6 | > 100 | 7.73 | > 78.7 | > 100 |
| Cc1cnc2[nH]c(-c3ccc(F)cc3)cc(=O)c2c1 | 99 | > 84.5 | 47 | 50.4 | > 100 | > 100 | > 100 | > 100 | 62.8 | 81.3 | > 100 | > 100 | > 100 |
| C[C@]12CC(c3ccccc3O1)C(C#N)C(=O)N2 (some centres not stated) | – | > 100 | > 100 | – | > 100 | > 100 | > 100 | > 100 | > 100 | > 100 | > 100 | > 100 | – |
| C=C(C)[C@@H]1CC[C@@H](C)[C@](O)([C@@H]2C[C@@H]([C@H](COC(=O)c3ccccc3)OC(=O)c3ccccc3)OC2=O)C1 | > 100 | > 100 | > 100 | > 100 | > 100 | > 100 | > 100 | > 100 | > 100 | > 100 | > 100 | > 100 | > 100 |
| CCCCSC1=N/C(=C\c2ccco2)C(=O)N1 | > 100 | > 100 | – | > 100 | > 100 | > 100 | > 100 | > 100 | > 100 | > 100 | > 100 | > 100 | > 100 |
| COc1ccc(-c2c3c(n(C4OC(CO)C(O)C(O)C4O)c(=S)c2C#N)CC(C)(C)CC3=O)cc1 (configuration not stated) | > 100 | > 100 | > 100 | > 100 | > 100 | > 100 | > 100 | > 100 | > 100 | > 100 | > 100 | > 100 | > 100 |
